Experimental data published in patent US20210278408A1, “METHODS OF TREATMENT OF CANCER WITH SUBSTITUTED PYRROLE AND PYRAZOLE COMPOUNDS AND DIAGNOSIS OF CANCERS SUSCEPTIBLE TO TREATMENT WITH SUBSTITUTED PYRROLE AND PYRAZOLE COMPOUNDS” (Bantam Pharmaceutical, LLC, priority 2018, published 2021).
Where two headings read alike, the source gives them in different places.

Test system: 407 cancer cell lines
Experiment: Cell viability of cancer cell lines (IC50), CellTiter-Glo Viability Assay, 96 h
Format: cell-based
Conditions: for IC50: read-out: Absolute IC50
Protocol: Viability was determined by using the 50% inhibitory concentration (IC50) as determined with the CellTiter-Glo® Viability Assay (Promega).
Experiments were initiated by first thawing and equilibrating the CellTiter-Glo® Buffer to room temperature. The lyophilized CellTiter-Glo® Substrate was also equilibrated to room temperature. The lyophilized substrate was reconstituted with the CellTiter-Glo® buffer to form the CellTiter-Glo® Reagent.
Cells were harvested during the logarithmic growth period, counted, and the cell concentration adjusted to 4.44×10^4 cells/mL using culture medium.
Cells were allowed to grow overnight and the following day, the TO reading was obtained by adding 10 μL culture medium to each well of Plate A. The plate was allowed to equilibrate at room temperature for thirty minutes, after which 50 μL CellTiter-Glo® reagent was added to each well. The contents were mixed for 5 min on an orbital shaker to induce cell lysis. Plates were incubated for 20 minutes to stabilize the luminescent signal and the TO luminescence recorded.
Test plate B was incubated for 96 h in the humidified incubator at 37° C. with 5% CO2.
Following the incubation, the plate was equilibrated at room temperature for thirty minutes. CellTiter-Glo® (50 μL) was added to each well of the plate and contents mixed for five minutes on an orbital shaker to induce cell lysis. The luminescent signal was allowed to stabilize at room temperature for 20 minutes and the luminescence recorded.
IC50 (EC50) was calculated using a dose-response curve, fitted using a nonlinear regression model with a sigmoidal dose response. Survival rate was calculated using the formula:
The Surviving rate (%)=(LumTest article−LumMedium control)/(LumNon-treated−LumMedium control)×100%.
Absolute IC50 (EC50) was calculated according to the dose-response curve generated by the statistical software (GraphPad Prism 5.0).

N.N.[Cl][Pt][Cl] [Cisplatin, reference compound]
IC50 (MV-4-11 cells, 96 h): 0.41 µM
IC50 (MX-1): 2.39 µM
IC50 (Molt-4): 0.7 µM
IC50 (MsTo 211H): 2.5 µM
IC50 (NAMALWA CSN/70): 0.28 µM
IC50 (NAMALWA cells, 96 h): 0.63 µM
IC50 (NB4 cells, 96 h): 0.84 µM
IC50 (NCI-H23 cells, 96 h): 0.75 µM
IC50 (NCI-H69 cells, 96 h): 3.28 µM
IC50 (NCI-H82, 96 h): 1.83 µM
IC50 (NCI-H146 cells, 96 h): 1.81 µM
IC50 (NCI-H187): 0.68 µM
IC50 (NCI-H209 cells, 96 h): 0.44 µM
IC50 (NCI-H226): 3.56 µM
IC50 (NCI-H292 cells, 96 h): 2.25 µM
IC50 (NCI-H322 cells, 96 h): 10.8 µM
IC50 (NCI-H358 cells, 96 h): 6.07 µM
% inhibition at top conc. (NCI-H441 cells, 96 h): 74.99%
IC50 (NCI-H441 cells, 96 h): 6.18 µM
IC50 (NCI-H446 cells, 96 h): 1.93 µM
IC50 (NCI-H460 cells, 96 h): 2.77 µM
IC50 (NCI-H508 cells, 96 h): 8.02 µM
IC50 (NCI-H520 cells, 96 h): 10.7 µM
IC50 (NCI-H522 cells, 96 h): 4.49 µM
IC50 (NCI-H526 cells, 96 h): 0.33 µM
IC50 (NCI-H596): 2.06 µM
IC50 (NCI-H661 cells, 96 h): 6.42 µM
IC50 (NCI-H716 cells, 96 h): 8.99 µM
IC50 (NCI-H727 cells, 96 h): 13.2 µM
IC50 (NCI-H747 cells, 96 h): 7.3 µM
IC50 (NCI-H820 cells, 96 h): 0.79 µM
IC50 (NCI-H929): 3.07 µM
IC50 (NCI-H1048 cells, 96 h): 1.37 µM
IC50 (NCI-H1155 cells, 96 h): 2.15 µM
IC50 (NCI-H1299 cells, 96 h): 2.67 µM
IC50 (NCI-H1373): 1.45 µM
IC50 (NCI-H1395): 2.91 µM
IC50 (NCI-H1435): 14.8 µM
IC50 (NCI-H1437 cells, 96 h): 5.67 µM
IC50 (NCI-H1563): 16.9 µM
IC50 (NCI-H1568 cells, 96 h): 0.95 µM
IC50 (NCI-H1573 cells, 96 h): 10.6 µM
IC50 (NCI-H1581 cells, 96 h): 2.98 µM
IC50 (NCI-H1648 cells, 96 h): 8.25 µM
IC50 (NCI-H1650): 5.12 µM
IC50 (NCI-H1651 cells, 96 h): 0.62 µM
IC50 (NCI-H1666 cells, 96 h): 6.16 µM
IC50 (NCI-H1688): 13.8 µM
IC50 (NCI-H1703 cells, 96 h): 6.11 µM
IC50 (NCI-H1781 cells, 96 h): 0.64 µM
IC50 (NCI-H1838 cells, 96 h): 6.41 µM
IC50 (NCI-H1915 cells, 96 h): 5.23 µM
IC50 (NCI-H1975 cells, 96 h): 3.24 µM
IC50 (NCI-H1993 cells, 96 h): 10.4 µM
IC50 (NCI-H2009): 16.7 µM
IC50 (NCI-H2052): 5.77 µM
IC50 (NCI-H2087 cells, 96 h): 1.01 µM
IC50 (NCI-H2122 cells, 96 h): 8.93 µM
IC50 (NCI-H2170 cells, 96 h): 1.02 µM
IC50 (NCI-H2228 cells, 96 h): 4.6 µM
% inhibition at top conc. (NCI-H2452): 80.91%
IC50 (NCI-H2452): 35.5 µM
IC50 (NCI-H3122 cells, 96 h): 5.73 µM
IC50 (NCI-N87, 96 h): 0.95 µM
IC50 (NK-92MI): 1.2 µM
IC50 (NOZ): 1.19 µM
IC50 (NUGC-3 cells, 96 h): 0.25 µM
IC50 (NUGC-4 cells, 96 h): 3.65 µM
IC50 (OCI-AML3): 2.34 µM
IC50 (OCI-LY7 cells, 96 h): 1.81 µM
IC50 (OCUG-1): 16.3 µM
IC50 (OCUM-1 cells, 96 h): 9.94 µM
IC50 (OCUM-2D cells, 96 h): 2.59 µM
IC50 (OCUM-2M cells, 96 h): 3.62 µM
% inhibition at top conc. (OE19, 96 h): 81.07%
IC50 (OE19, 96 h): 19.4 µM
IC50 (OPM2): 0.79 µM
IC50 (OS-RC-2): 3.5 µM
IC50 (OSC-19 cells, 96 h): 8.56 µM
IC50 (OVCAR-3 cells, 96 h): 5.11 µM
IC50 (OVCAR-8 cells, 96 h): 3.13 µM
IC50 (OZ): 15 µM
IC50 (PANC-1): 4.61 µM
IC50 (PC-3): 4.66 µM
IC50 (PC-9 cells, 96 h): 1.97 µM
IC50 (PEER): 2.04 µM
IC50 (PL45): 1.76 µM
IC50 (PLC/PRF/5): 8.47 µM
IC50 (Pfeiffer cells, 96 h): 1.99 µM
IC50 (RBE cells, 96 h): 4.14 µM
IC50 (RD-ES): 0.8 µM
IC50 (RKO): 3.08 µM
IC50 (RPMI 8226 cells, 96 h): 4.04 µM
IC50 (RPMI-2650 cells, 96 h): 1.89 µM
IC50 (RS4;11): 0.33 µM
IC50 (RT4 cells, 96 h): 4.2 µM
IC50 (RT112/84): 0.93 µM
IC50 (Raji cells, 96 h): 2.07 µM
IC50 (Ramos cells, 96 h): 0.64 µM
IC50 (Reh): 0.43 µM
IC50 (SCC-4, 96 h): 2.96 µM
IC50 (SCC-9 cells, 96 h): 8.37 µM
IC50 (SCC-15 cells, 96 h): 3.3 µM
IC50 (SCH cells, 96 h): 6.82 µM
IC50 (SF268 cells, 96 h): 1.43 µM
IC50 (SF-126 cells, 96 h): 1.95 µM
IC50 (SF-763): 7.56 µM
IC50 (SH-SY5Y): 0.27 µM
IC50 (SJSA-1): 3.29 µM
IC50 (SK-BR-3): 0.6 µM
IC50 (SK-CO-1 cells, 96 h): 0.21 µM
IC50 (SK-HEP-1 cells, 96 h): 13.2 µM
IC50 (SK-LU-1 cells, 96 h): 1.38 µM
IC50 (SK-MEL-5, 96 h): 3.2 µM
IC50 (SK-MEL-28, 96 h): 5.62 µM
IC50 (SK-MES-1): 2.63 µM
IC50 (SK-N-FI cells, 96 h): 1.34 µM
IC50 (SK-N-SH): 0.36 µM
IC50 (SK-NEP-1 cells, 96 h): 0.6 µM
IC50 (SK-OV-3 cells, 96 h): 2.88 µM
IC50 (SK-UT-1 cells, 96 h): 6.94 µM
IC50 (SNU-1 cells, 96 h): 2.15 µM
IC50 (SNU-5, 96 h): 2.1 µM
IC50 (SNU-81): 3.7 µM
IC50 (SNU-216 cells, 96 h): 6.07 µM
IC50 (SNU-354): 13.8 µM
% inhibition at top conc. (SNU-368): 81.47%
IC50 (SNU-368): 20.2 µM
IC50 (SNU-387): 43.4 µM
IC50 (SNU-398): 4.9 µM
IC50 (SNU-423 cells, 96 h): 6.06 µM
IC50 (SNU-449): 3.52 µM
IC50 (SNU-475 cells, 96 h): 0.52 µM
IC50 (SNU-484 cells, 96 h): 4.96 µM
IC50 (SNU-601 cells, 96 h): 0.6 µM
IC50 (SNU-620 cells, 96 h): 7.03 µM
IC50 (SNU-638 cells, 96 h): 4.48 µM
IC50 (SNU-668 cells, 96 h): 4.96 µM
IC50 (SNU-719 cells, 96 h): 13.3 µM
IC50 (SNU-739): 0.81 µM
IC50 (SNU-761 cells, 96 h): 1.39 µM
IC50 (SNU-2535 cells, 96 h): 16.3 µM
IC50 (SNU-C2A): 1.77 µM
IC50 (SNU-C5 cells, 96 h): 2.36 µM
IC50 (ST486 cells, 96 h): 0.26 µM
IC50 (SU-DHL-1): 0.28 µM
IC50 (SU-DHL-4): 0.34 µM
IC50 (SU-DHL-5 cells, 96 h): 0.5 µM
IC50 (SU-DHL-6 cells, 96 h): 1.85 µM
IC50 (SU-DHL-8): 0.7 µM
IC50 (SUM159PT): 3.15 µM
IC50 (SUP-B15): 1.39 µM
IC50 (SW48 cells, 96 h): 1.27 µM
IC50 (SW 156 cells, 96 h): 1.03 µM
IC50 (SW480): 1.82 µM
IC50 (SW579 cells, 96 h): 1.41 µM
IC50 (SW626 cells, 96 h): 3.97 µM
IC50 (SW684 cells, 96 h): 33.4 µM
% inhibition at top conc. (SW756 cells, 96 h): 84.79%
IC50 (SW780 cells, 96 h): 1.98 µM
IC50 (SW837 cells, 96 h): 4.21 µM
IC50 (SW948 cells, 96 h): 17.8 µM
IC50 (SW1116 cells, 96 h): 7.94 µM
% inhibition at top conc. (SW1271): 85.04%
IC50 (SW1271): 17.1 µM
IC50 (SW1417 cells, 96 h): 6.91 µM
IC50 (SW1990): 0.85 µM
IC50 (SW-13): 1.38 µM
IC50 (SiHa cells, 96 h): 10.5 µM
IC50 (T24 cells, 96 h): 1.04 µM
IC50 (T47D): 5.25 µM
IC50 (T84): 3.17 µM
IC50 (TF-1): 5.11 µM
IC50 (TJ905 cells, 96 h): 9.46 µM
IC50 (TT cells, 96 h): 28.1 µM
IC50 (Toledo cells, 96 h): 0.49 µM
IC50 (U251 cells, 96 h): 3.52 µM
IC50 (U266B1): 4.53 µM
IC50 (U-87 MG cells, 96 h): 4.05 µM
IC50 (U-2932 cells, 96 h): 0.79 µM
IC50 (UACC-812 cells, 96 h): 4.61 µM
IC50 (UO.31 cells, 96 h): 4.4 µM
IC50 (WM-266-4 cells, 96 h): 3.12 µM
IC50 (WSU-DLCL2 cells, 96 h): 1.37 µM
IC50 (WSU-NHL cells, 96 h): 0.23 µM
IC50 (Y-79 cells, 96 h): 4.56 µM
IC50 (YCC-1 cells, 96 h): 6.62 µM
IC50 (YCC-2 cells, 96 h): 0.72 µM
IC50 (YCC-6 cells, 96 h): 2.62 µM
IC50 (YCC-10, 96 h): 0.69 µM
IC50 (YCC-11 cells, 96 h): 0.62 µM
IC50 (Z-138): 1.02 µM
IC50 (ZR-75-1): 5.73 µM
IC50 (ZR-75-30, 96 h): 2.99 µM
